This is an account of results in patent publication US11040937B2, “Amide derivative” (TOHOKU UNIVERSITY, priority 2014, dated 2021).

The assay has as its system A549 cells. Description: Matrix-Invasion assay (Matrigel). The format is cell-based, human. Conditions: 10 μmol/L, 48±4 hours, significance level less than 5%. As for the experimental part:
As a second test for determining whether or not the physiological function of cells induced by the OPN production is inhibited with a test compound, Matrix-Invasion assay was performed. In this assay, cups (inserts) whose bottom was covered with a membrane having φ8 μm pores coated with collagen or laminin (Matrigel, BD Bioscience) that is an extracellular matrix component and a 24-well plate for inserting the inserts were prepared. […]
Specifically, a fluorescent dye was introduced into A549 cells invading outside the membrane, and then the cells were separated from the membrane to measure their fluorescence intensity. At the same time, a fluorescent dye was introduced into a known number of cells for preparing a calibration curve, and a calibration curve was prepared from their fluorescence intensity. Then, the number of invading cells of a test sample containing an unknown number of cells was determined from the fitted curve. […]
The cells of human non-small cell lung cancer-derived cell line A549 were suspended in DMEM medium containing 10% FCS and 1% P/S at 1.8×10^5 cells/mL to obtain a cell suspension. […] This day was counted as Day 0 of operation. […]

For the compound `COc1ccc(Oc2cccc(C(=O)CCNC(=O)c3ccc(O)cc3)c2N)cc1` [Compound 6, N-(3-(2-Amino-3-(4-methoxyphenoxy)phenyl)-3-oxopropyl)-4-hydroxybenzamide], the “number of invading cells vs control group” value is listed as “significantly inhibited”.
